Test results from PubChem BioAssay (NCI).
Where “and” joins values, the source holds several entries; their conditions need not be identical. Equal values may be shown once.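 Results reflect a 48-hour exposure of cells in 96-well plates to compound at five concentrations. GI50: concentration for 50% inhibition of growth. At the TGI there is no net growth.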

Key:
Assay in all cases: NCI anticancer screen, dose series, 48 h
[1] = system: HCT-15 colon
[2] = system: CCRF-CEM leukemia
[3] = system: SN12C renal
[4] = system: SNB-19 CNS
[5] = system: LOX IMVI melanoma
[6] = system: HOP-62 NSCLC
[7] = system: SK-MEL-28 melanoma
[8] = system: NCI-H460 lung
[9] = system: PC-3 prostate
[10] = system: MDA-MB-231 breast

Structure (SMILES) | GI50 [1] [µM] | TGI [1] [µM] | GI50 [2] [µM] | TGI [2] [µM] | GI50 [3] [µM] | TGI [3] [µM] | GI50 [4] | TGI [4] | GI50 [5] [µM] | TGI [5] [µM] | GI50 [6] [µM] | TGI [6] | GI50 [7] [µM] | TGI [7] [µM] | GI50 [8] [µM] | TGI [8] [µM] | GI50 [9] [µM] | TGI [9] [µM] | GI50 [10] | TGI [10]
Cc1ccc(C)c2c1C(O)(C#Cc1ccccc1)c1ccccc1C2(O)C#Cc1ccccc1 (configuration not stated) | 1.03 | > 100 | 2.36 | > 25.4 | 3.04 | 89.2 | 3.74 µM | > 100 µM | 3.44 | > 64.2 | 5.88 | > 100 µM | 3.75 | > 88.5 | 2.38 | 12 | 2.42 | > 23.7 | 2.84 µM | > 100 µM
COc1cc(C#Cc2ccc(=O)oc2C#Cc2ccccc2)cc(OC)c1OC | 2.31 | 5.1 | 4.02 | > 100 | 1.75 | 3.5 | 8.91 µM | 34.3 µM | 1.1 | 2.6 | 12.2 | 30.9 µM | 2.64 | 7.22 | 3.94 | 16.4 | 4.13 | 16.3 | 2.84 µM | 7.87 µM
COc1cc(/C=C2\C(=O)Nc3cc(C)c(O)cc32)cc(OC)c1OC | 2.84 | 14.5 | 2.89 | 18.3 | 6.07 | 23.1 | 10.6 µM | 34.3 µM | 3.66 | 14.4 | 11.7 | 37.4 µM | 7.59 | 23 | 3.2 | 11.7 | 4.32 | > 100 | 3.25 µM | 23.1 µM
CCCC(=O)NC1=C(Cl)C(=O)c2ccccc2C1=O |  | 12.2 |  | > 100 |  | 31 |  | 36.4 µM |  | 6.27 |  | 25.7 µM |  | 17 |  | 20 |  | 13.8 |  | 17.4 µM
CCOC(=O)c1sc(-c2ccc(OS(=O)(=O)c3ccc(Br)s3)c(C=O)c2)nc1C | 2.61 | 7.79 | 2.36 | 9.16 | 3.09 | 10.7 | 3.17 µM | 12 µM | 2.9 | 8.52 | 3.3 | 12.5 µM | 11.4 | 33.4 | 22.7 | 58.6 | 2.97 | 11 | 2.75 µM | 10.1 µM
Cn1cc(C2=C(c3cn(CCCCN)c4ccccc34)C(=O)NC2=O)c2ccccc21 | > 25 | > 25 | > 25 | > 25 | > 25 | > 25 | > 25 µM | > 25 µM | > 25 | > 25 | > 25 | > 25 µM | > 25 | > 25 | > 25 | > 25 | > 25 | > 25 | > 25 µM | > 25 µM
S=C(Nc1ccc(Br)cc1)Nc1ccc(Br)cc1 | 3.35 | > 100 | 6.19 | > 100 | 9.72 | > 100 | 17.2 µM | > 100 µM | 5.29 | > 100 | 83.9 | > 100 µM | 49.8 | > 100 | 3.69 | > 100 | 4.17 | > 100 | 25.5 µM | > 100 µM
O=c1c(Oc2ccc(F)cc2F)cc2cnc(NC3CCOCC3)nc2n1CCCO | > 25 | > 25 | > 25 | > 25 | > 25 | > 25 | > 25 µM | > 25 µM | > 25 | > 25 | > 25 | > 25 µM | > 25 | > 25 | > 25 | > 25 | > 25 | > 25 | > 25 µM | > 25 µM
Cc1cc(=O)oc2cc(OC(=O)N(C)C)c(Cl)cc12 |  | > 100 |  | > 100 |  | > 100 |  | > 100 µM |  | > 100 |  | 79 µM |  | > 100 |  | > 100 |  | > 100 |  | > 100 µM
CC(=O)OCC1OC(n2c(-c3ccc(Cl)cc3)ccc(C#N)c2=S)C(OC(C)=O)C(OC(C)=O)C1OC(C)=O (configuration not stated) |  | > 100 |  | > 100 |  | > 100 | 14.8 µM and 42.2 µM | 58.4 µM and > 100 µM |  | > 100 |  | 26.1 µM and > 100 µM |  | > 100 |  | > 100 |  | > 100 | 10.2 µM and 42.9 µM | 47.1 µM and > 100 µM
CCCNNC(=O)/C=C/c1ccc(CNCCc2c(C)[nH]c3ccccc23)cc1 | 0.0954 | 3.16 | 0.0138 | 6.43 | 0.0634 | 3.76 | 0.0768 µM | 2.1 µM | 0.0368 | 0.0797 | 0.031 | 0.785 µM | 0.0253 | 0.0964 | 0.0726 | 3.57 | 0.0175 | 3.74 | 0.0708 µM | 3.74 µM
COc1ccc(S(=O)(=O)N2CC(C)(C)CN(S(=O)(=O)c3ccc(OC)cc3)C2C(=O)NO)cc1 | > 20 | > 20 | 1.29 | > 16.6 | > 20 | > 20 | > 20 µM | > 20 µM | > 11.1 | > 20 | > 20 | > 20 µM | > 20 | > 20 | > 20 | > 20 | > 20 | > 20 | > 16.2 µM | > 20 µM
COc1ccc(C(=O)/C=C/c2ccc(C)cc2)cc1OC | 8.52 | 22.1 | 25.1 | 61.2 | 13.1 | 26.9 | 12.8 µM | 25.5 µM | 13 | 25.6 | 14.6 | 27.8 µM | 16.5 | 30.1 | 7.77 | 20.5 | 15.4 | 32.4 | 14.3 µM | 33.1 µM
